Values quoted from earlier work, collected in patent US10058532B2, “Methods of preventing progression to type 2 diabetes mellitus” (Vivus, Inc., priority 2013, dated 2018).
Like-named read-outs stand apart in the source and are kept apart here.

- solubility (methanol and acetone): freely soluble
- solubility (pH 1 to pH 8 aqueous solutions): slightly soluble
- solubility (pH 9 to pH 12 aqueous solutions): sparingly soluble
SMILES: CC1(C)O[C@@H]2[C@@H](CO[C@@]3(COS(N)(=O)=O)OC(C)(C)O[C@@H]23)O1 [Topiramate, 2,3:4,5-di-O-isopropylidene-β-D-fructopyranose sulfamate]
